Where a name gives a salt, the structure may show the parent alone.
Columns and labels:
Log P of the drug = conditions: for logP: octanol/water, Log P
[1] = glass transition temperature (Tg) of the drug; type: physicochemical; conditions: for Tg: Table B, unless noted Tg measured at less than 10% RH
Description: In a first aspect, the invention comprises a solid composition comprising a plurality of particles. The particles comprise a low-solubility drug and a poloxamer. The drug is in intimate contact with the poloxamer in the particles. Collectively, the drug and poloxamer constitute at least 50 wt % of the particles. At least a substantial portion of the drug in the composition is amorphous. The Tg of the drug is at least 50° C. Unless otherwise noted, as used herein the Tg refers to the Tg measured at less than 10% RH.
Such Tg values may represent that of drug dispersed in the amorphous portions of the poloxamer or the Tg of drug-rich phases or domains. […] The Tg of the drug may be at least about 60° C., at least about 70° C., or even at least about 80° C. The Tg of a drug can be determined using standard analytical techniques well known in the art, including by a dynamic mechanical analyzer (DMA), a dilatometer, a dielectric analyzer, and by differential scanning calorimetry (DSC).

[2] = in vitro dissolution test of Drug 2 compositions in Model Fasted Duodenal solution; type: physicochemical; conditions: for AUC / Drug 2 Concentration: MFD solution, 200 μg/mL if all dissolved; for Drug 2 Concentration: 37° C.
Description: (§1) The solid compositions of Examples 1-2 were evaluated in an in vitro dissolution test to ascertain concentration enhancement of Drug 1. A […] sample of each solid composition was added in duplicate to a microcentrifuge tube, so that the total concentration of Drug 1 would have been 2000 μg/mL if all of the drug had dissolved. The tubes were placed in a 37° C. temperature-controlled chamber, and 1.8 mL PBS containing 0.5 wt % sodium taurocholic acid and 1-palmitoyl-2-oleyl-sn-glycero-3-phosphocholine (NaTC/POPC, with a 4/1 weight ratio) at pH 6.5 and 290 mOsm/kg (simulating a Model Fasted Duodenal solution) was added to each respective tube. The samples were quickly mixed using a vortex mixer for about 60 seconds. The samples were centrifuged at 13,000 G at 37° C. for 1 minute. The resulting supernatant solution was then sampled and diluted 1:6 (by volume) with methanol and then analyzed by high-performance liquid chromatography (HPLC). The contents of each respective tube were mixed on a vortex mixer and allowed to stand undisturbed at 37° C. until the next sample was taken. Samples were collected at 4, 10, 20, 40, 90, and 1200 minutes.
Examples 3-4 were tested by in vitro dissolution tests to ascertain concentration enhancement of Drug 2 as in Examples 1-2, except that a sufficient amount of material was added to the Model Fasted Duodenal solution to obtain a drug concentration of 200 μg/mL if all of the drug dissolved. As a control (C2), crystalline Drug 2 alone was used.
The concentrations of drug obtained in these samples were used to determine the MDC90 and the AUC90 during the initial 90 minutes.

[3] = in vitro dissolution test of Drug 3 compositions in PBS; type: physicochemical; conditions: for AUC / Drug 3 Concentration: 1000 μg/mL if all dissolved; for Drug 3 Concentration: 37° C.
[4] = in vitro dissolution test of Drug 5 particles in MFD solution; type: physicochemical; conditions: dose 120 μg/mL; for Drug 5 Concentration: 37° C.
[5] = as above; type: physicochemical; conditions: dose 120 μg/mL; for AUC / Drug 5 Concentration: MFD solution; for Drug 5 Concentration: 37° C.
Description: as §1
The so-formed particles were tested in vitro to ascertain concentration enhancement of Drug 5 as in Examples 1-2 at a dose of 120 μg/mL. Control C9 consisted of amorphous Drug 5 alone.
The concentration of drug obtained in these samples were used to determine the Cmax90 during the initial 90 minutes.

[6] = Drug 5, MFDS, initial 90 minutes

Work on `CCCc1nn(C)c2c(=O)[nH]c(-c3cc(S(=O)(=O)N4CCN(C)CC4)ccc3OCC)nc12` [1-[4-ethoxy-3-(6,7-dihydro-1-methyl-7-oxo-3-propyl-1H-pyrazolo[4,3-d]pyrimidin-5-yl)phenylsulphonyl]-4-methylpiperazine] yielded a logP (Log P of the drug) of 7 and a Tg [1] of 135 °C.
For `Cc1ncccc1CNC(=O)c1ccc2c(c1)CC[C@@H]1C[C@@](O)(CCC(F)(F)F)CC[C@@]21Cc1ccccc1` [Drug 2, 2-phenanthrenecarboxamide,4b,5,6,7,8,8a,9,10-octahydro-7-hydroxy-N-[(2-methyl-3-pyridinyl)methyl]-4b-(phenylmethyl)-7-(3,3,3-trifluoropropyl)-, (4bS,7S,8aR)-], the “Log P” value (Log P of the drug) was “about 6.2”, the Tg [1] was 99 °C and the “Tg,drug” value ([1]; at 0% RH) was 99 °C.
With `CCOC(=O)N1c2ccc(C(F)(F)F)cc2[C@@H](N(Cc2cc(C(F)(F)F)cc(C(F)(F)F)c2)C(=O)OC)C[C@H]1CC` [Drug 4, [2R,4S] 4-[(3,5-bis-trifluoromethyl-benzyl)-methoxycarbonyl-amino]-2-ethyl-6-trifluoromethyl-3,4-dihydro-2H-quinoline-1-carboxylic acid ethyl ester] the “Log P” value (Log P of the drug) was 7.3, the logP (Log P of the drug) was about 7.5 and the “Tg,drug” value ([1]; at ambient RH) was “about 28 °C”.
For `CCc1cc(Oc2cccc(N(Cc3cccc(OC(F)(F)C(F)F)c3)C[C@@H](O)C(F)(F)F)c2)ccc1Cl` [Drug 5, (2R)-3-[[3-(4-chloro-3-ethylphenoxy)phenyl][[3-(1,1 ,2,2-tetrafluoroethoxy)phenyl]methyl]amino]-1,1,1-trifluoro-2-propanol], the “Log P” value (Log P of the drug) was 10.1, the logP (Log P of the drug) was about 10 and the “Tg,drug” value ([1]; RH not stated) was “about −15 °C”.
For `Cc1ncccc1CNC(=O)c1ccc2c(c1)CC[C@@H]1C[C@@](O)(CCC(F)(F)F)CC[C@@]21Cc1ccccc1` [Example C2, 2-phenanthrenecarboxamide,4b,5,6,7,8,8a,9,10-octahydro-7-hydroxy-N-[(2-methyl-3-pyridinyl)methyl]-4b-(phenylmethyl)-7-(3,3,3-trifluoropropyl)-, (4bS,7S,8aR)-], the AUC90 ([2]; Drug 2, MFD, initial 90 minutes) was 100 µg·min/mL, the Cmax90 ([2]; Drug 2, MFD, initial 90 minutes (MDC90 in the text)) was 1000 ng/mL and the AUC ([2]; Drug 2, time 0 min) was 0 µg·min/mL. It also gave an AUC ([2]; Drug 2, time 4 min) of 0 µg·min/mL, an AUC ([2]; Drug 2, time 10 min) of 0 µg·min/mL and an AUC ([2]; Drug 2, time 20 min) of 0 µg·min/mL. The AUC ([2]; Drug 2, time 40 min) was 0 µg·min/mL, the AUC ([2]; Drug 2, time 90 min) was 100 µg·min/mL and the AUC ([2]; Drug 2, time 1200 min) was 3400 µg·min/mL. The “Drug 2 Concentration” value ([2]; time 0 min) was 0 µg/mL, the “Drug 2 Concentration” value ([2]; time 4 min) was 1 µg/mL and the “Drug 2 Concentration” value ([2]; time 10 min) was 1 µg/mL. For the same compound, the “Drug 2 Concentration” value ([2]; time 20 min) was 0 µg/mL, the “Drug 2 Concentration” value ([2]; time 40 min) was 0 µg/mL and the “Drug 2 Concentration” value ([2]; time 90 min) was 1 µg/mL. The “Drug 2 Concentration” value ([2]; time 1200 min) was 5 µg/mL.
For `Cc1c(O)cccc1C(=O)N[C@@H](CSc1ccccc1)[C@H](O)CN1C[C@H]2CCCC[C@H]2C[C@H]1C(=O)NC(C)(C)C` [Example C3, nelfinavir mesylate], the AUC90 ([3]; Drug 3, initial 90 minutes) was 400 µg·min/mL, the Cmax90 ([3]; Drug 3, initial 90 minutes (MDC90 in the text)) was 6000 ng/mL and the AUC ([3]; Drug 3, time 0 min) was 0 µg·min/mL. The AUC ([3]; Drug 3, time 4 min) was 0 µg·min/mL, the AUC ([3]; Drug 3, time 10 min) was 0 µg·min/mL and the AUC ([3]; Drug 3, time 20 min) was 100 µg·min/mL. It also gave an AUC ([3]; Drug 3, time 40 min) of 200 µg·min/mL, an AUC ([3]; Drug 3, time 90 min) of 400 µg·min/mL and an AUC ([3]; Drug 3, time 1200 min) of 5100 µg·min/mL. For the same compound, the “Drug 3 Concentration” value ([3]; time 0 min) was 0 µg/mL, the “Drug 3 Concentration” value ([3]; time 4 min) was 5 µg/mL and the “Drug 3 Concentration” value ([3]; time 10 min) was 5 µg/mL. For the same compound, the “Drug 3 Concentration” value ([3]; time 20 min) was 6 µg/mL, the “Drug 3 Concentration” value ([3]; time 40 min) was 6 µg/mL and the “Drug 3 Concentration” value ([3]; time 90 min) was 4 µg/mL. The “Drug 3 Concentration” value ([3]; time 1200 min) was 5 µg/mL.
In the case of `CCc1cc(Oc2cccc(N(Cc3cccc(OC(F)(F)C(F)F)c3)C[C@@H](O)C(F)(F)F)c2)ccc1Cl` [Example C9, (2R)-3-[[3-(4-chloro-3-ethylphenoxy)phenyl][[3-(1,1 ,2,2-tetrafluoroethoxy)phenyl]methyl]amino]-1,1,1-trifluoro-2-propanol], the AUC ([4]; Drug 5, time 0 min) is reported as 0 µg·min/mL, the AUC ([4]; Drug 5, time 3.5 min) is reported as 5 µg·min/mL and the AUC ([4]; Drug 5, time 7.25 min) is reported as 17 µg·min/mL. For the same compound, the AUC ([4]; Drug 5, time 11 min) was 34 µg·min/mL, the AUC ([4]; Drug 5, time 20 min) was 96 µg·min/mL and the “Drug 5 Concentration” value ([4]; time 3.5 min) was 2.8 µg/mL. The “Drug 5 Concentration” value ([4]; time 7.25 min) was 3.8 µg/mL, the “Drug 5 Concentration” value ([4]; time 11 min) was 5.3 µg/mL and the “Drug 5 Concentration” value ([4]; time 20 min) was 8.4 µg/mL. For the same compound, the AUC90 [5, 6] was 1,400 min * μg/mL, the Cmax90 [5, 6] was 29000 ng/mL and the AUC ([5]; Drug 5, time 40 min) was 330 µg·min/mL. For the same compound, the AUC ([5]; Drug 5, time 90 min) was 1,400 min * μg/mL, the AUC ([5]; Drug 5, time 1200 min) was 60,700 min * μg/mL and the “Drug 5 Concentration” value ([5]; time 0 min) was 0 µg/mL. For the same compound, the “Drug 5 Concentration” value ([5]; time 40 min) was 15 µg/mL, the “Drug 5 Concentration” value ([5]; time 90 min) was 29 µg/mL and the “Drug 5 Concentration” value ([5]; time 1200 min) was 78 µg/mL.
With `CC[C@@H]1C[C@H](N(Cc2cc(C(F)(F)F)cc(C(F)(F)F)c2)C(C)=O)c2cc(C(F)(F)F)ccc2N1C(=O)OC(C)C` [[2R,4S] 4-[acetyl-(3,5-bis-trifluoromethyl-benzyl)-amino]-2-ethyl-6-trifluoromethyl-3,4-dihydro-2H-quinoline-1-carboxylic acid isopropyl ester] the logP (Log P of the drug) was 6.9.
With `CCC(CC)Nc1cc(C)nc(Oc2c(C)cc(C)cc2C)c1C` [[3,6-dimethyl-2-(2,4,6-trimethyl-phenoxy)-pyridin-4-yl]-(1-ethyl-propyl)-amine] the logP (Log P of the drug) was 7.
